Results: patent publication US5972933A, “Method of treating microbial infections” (Ed. Geistlich Sohne AG Fur Chemische Industrie, priority 1998, dated 1999)

Tests used:
VRE, designated HAM-1 = details: commonly encountered VRE; cited from earlier work
EMRSA 15 strains = details: local EMRSA 15 strains, typically; cited from earlier work
S. aureus NCTC 6571 = experiment: Disc sensitivity testing (Stokes), reference strain; format: cell-based, Staphylococcus aureus; details: CLX
Procedure: All routine sensitivity testing was performed using a standard disc diffusion technique (Stokes) performed on Unipath (Oxoid) Diagnostic Sensitivity Test agar with 5% lysed horse blood.
Testing of Staphylococci--Staphylococcus aureus (Oxford strain) NCTC 6571
Inocula for test and control organisms were prepared from overnight 37° C. Unipath (Oxoid) Brain Heart Infusion broth cultures. Prom these well-mixed cultures, 2 drops ([…]) were transferred to 3 ml sterile water. This suspension was used to moisten sterile cotton tipped swabs which were then used with a rotary plater for inoculation of test plates.
The following disc sets were used for sensitivity testing:
Methicillin Sensitivity Testing
Methicillin (cloxacillin) sensitivity for Staphylococci was confirmed using a methicillin test strips (Methi-test, Medical Wire Limited--MW981) and a heavy inoculum. This was prepared by adding 5 colonies from an overnight nutrient agar plate culture 3 ml water.
For each organism, including sensitive and resistant controls, a loop was charged with the heavy inoculum suspension and streaked across a Unipath (Oxoid) Diagnostic Sensitivity Test plus 5% lysed horse blood agar plate in a single direction. A methicillin strip was then placed on the surface of the plate at right angles to the inocula. […]

bacteria and fungi [1] = details: known antimicrobial substances; cited from earlier work
[2] = cited from earlier work
bacteria and fungi [3] = experiment: Antimicrobial activity (general statements); format: cell-based
TNF production = TNF production in human blood / antibiotic-treated cultures; format: cell-based
Text: Taurolidine and/or Taurultam prevent over-production of cytokines in the patient by monocytes of the blood.

Staph. app. = experiment: Resistance to Vancomycin (30 μg/Disc), Staph. app.; format: cell-based
Procedure: ^1 VE30: Resistance to Vancomycin (30 μg/Disc)

Molecule | in vitro resistance of strain (VRE, designated HAM-1) | in vitro resistance of strain (EMRSA 15 strains) | also measured
CC1(C)S[C@@H]2[C@H](NC(=O)[C@H](N)c3ccccc3)C(=O)N2[C@H]1C(=O)O [Ampicillin] | resistance in vitro |  | 
O=C(O)c1cn(C2CC2)c2cc(N3CCNCC3)c(F)cc2c1=O [Ciprofloxacin] |  | resistant in vitro | 
CCC[C@@H]1C[C@@H](C(=O)N[C@@H]([C@H]2O[C@H](SC)[C@H](O)[C@@H](O)[C@H]2O)[C@H](C)Cl)N(C)C1 [Clindamycin, clindamycin] |  | resistant in vitro | 
Cc1onc(-c2ccccc2Cl)c1C(=O)N[C@@H]1C(=O)N2[C@@H]1SC(C)(C)[C@@H]2C(=O)O [Cloxacillin] |  | resistant in vitro | disc sensitivity, methicillin (cloxacillin) (S. aureus NCTC 6571): S (Test zones <5 mm smaller than the control zone are SENSITIVE)
CC[C@H]1OC(=O)[C@H](C)[C@@H](O[C@H]2C[C@@](C)(OC)[C@@H](O)[C@H](C)O2)[C@H](C)[C@@H](O[C@@H]2O[C@H](C)C[C@H](N(C)C)[C@H]2O)[C@](C)(O)C[C@@H](C)C(=O)[C@H](C)[C@@H](O)[C@]1(C)O [Erythromycin] | resistance in vitro | resistant in vitro | 
COc1cccc(OC)c1C(=O)N[C@@H]1C(=O)N2[C@@H]1SC(C)(C)[C@@H]2C(=O)O [Methicillin, methicillin] |  | resistant in vitro | 
C/C(=C\C(=O)OCCCCCCCCC(=O)O)C[C@@H]1OC[C@H](C[C@@H]2O[C@H]2[C@@H](C)[C@H](C)O)[C@@H](O)[C@H]1O [Mupirocin] |  | resistant in vitro | 
O=S1(=O)CCNCN1 [Taurultam] |  |  | antimicrobial spectrum (bacteria and fungi [1]): broad-spectrum activity against aerobic and anaerobic bacteria, mycobacteria and fungi; half-life in vivo [2]: short half-life in vivo; rate of bacterial killing (bacteria and fungi [3]): kills bacteria slowly; resistance development (bacteria and fungi [3]): no resistance development by microbes has been observed; TNF production (TNF production; added to antibiotic-treated cultures): prevents a rise in TNF production; neutralization of released endotoxins (TNF production; antibiotic-treated cultures): nearly complete neutralization of released endotoxins
CN[C@H](CC(C)C)C(=O)N[C@H]1C(=O)N[C@@H](CC(N)=O)C(=O)N[C@H]2C(=O)N[C@H]3C(=O)N[C@H](C(=O)N[C@H](C(=O)O)c4cc(O)cc(O)c4-c4cc3ccc4O)[C@H](O)c3ccc(c(Cl)c3)Oc3cc2cc(c3O[C@@H]2O[C@H](CO)[C@@H](O)[C@H](O)[C@H]2O[C@H]2C[C@](C)(N)[C@H](O)[C@H](C)O2)Oc2ccc(cc2Cl)[C@H]1O [Vancomycin] | resistance in vitro |  | VE30: Resistance to Vancomycin (Staph. app.): S
Gentamicin | high level gentamicin resistance |  | 
Teicoplanin | resistance in vitro |  | 
